Reference: patent US9597407B2, “Targeted antimicrobial moieties” (C3 Jian, Inc., priority 2009, dated 2017)
“Also recorded” adds a separate entry of the source.

Experiments:
microorganisms [1] = assay: Morphology, biofilm and growth disruption by peptides (Table 5); format: cell-based; set-up: key: A: Peptide aggregates; B: Less hyphal formation; Clumps; Diffuse clumps and small polyps; F: Diffuse growth; H: Thin; I: Growth inhibition; Microcolony formation; Rippled; Small polyps; Thick; W: Halo formation on top, microlonies on bottom
Text: In certain embodiments peptides that induce alterations in phenotype or other biological activities can also be used as antimicrobial effector moieties.

bacteria = assay: Binding of targeting peptides to microorganisms (Table 3); conditions: peptide binding in aqueous buffers that varied depending on peptide solubility; preferably 1x PBS
microorganisms [2] = assay: Peptide activities: binding, antimicrobial, growth or phenotype altering (Table 8)
Text: In certain embodiments, peptides described herein can have multiple activities. Thus for example, a peptide can have both binding/targeting activity and antimicrobial activity. Such peptides can be used, e.g., in a chimeric construct, for any or all of these properties. Thus, for example, a peptide designated “B” in Table 8 can be used as a targeting peptide. If it is also designated G or M it can also be used for antimicrobial activity.

| Substance | Organism, effect (morphology, biofilm and growth disruption) (microorganisms [1]; E. coli) | Organism, effect (morphology, biofilm and growth disruption) (microorganisms [1]; M. luteus) | Organism, effect (morphology, biofilm and growth disruption) (microorganisms [1]; MRSA) | Organism, effect (morphology, biofilm and growth disruption) (microorganisms [1]; P. mirabilis) | Organism, effect (morphology, biofilm and growth disruption) (microorganisms [1]; S. epidermidis) | Organism, effect (morphology, biofilm and growth disruption) (microorganisms [1]; S. mutans) | Organism, effect (morphology, biofilm and growth disruption) (microorganisms [1]; S. pneumoniae) | Target(s) (microorganism bound by the targeting peptide) (bacteria) | Activities (microorganisms [2]) | Organism, effect (morphology, biofilm and growth disruption) (microorganisms [1]; P. aeruginosa) |
| --- | --- | --- | --- | --- | --- | --- | --- | --- | --- | --- |
| PF-741 (chain 1 AKREDTVAAQIGANILNLIQ; chain 2 AKREDTVAAQIGANILNLIQ; Peptide with targeting and/or antimicrobial activity) | E. coli (C) | M. luteus (C) | MRSA (C) | P. mirabilis (C) | S. epidermidis (C) | S. mutans (D) | S. pneumoniae (D) | S. epidermidis and M. luteus and P. mirabilis and P. aeruginosa and C. albicans and MRSA and S. pneumoniae and E. faecalis | G B | – |
| PF-744 (chain 1 LGVGTFVGKVLIKNQQKQKSKKKAQ; chain 2 LGVGTFVGKVLIKNQQKQKSKKKAQ; Peptide with targeting and/or antimicrobial activity) | – | – | – | – | – | – | S. pneumoniae (H) | S. epidermidis and M. luteus and E. coli and MRSA and S. pneumoniae and E. faecalis and C. jeikeium | G B | – |
| PF-746 (chain 1 FLGNSQYFTRK; chain 2 FLGNSQYFTRK; Peptide with targeting and/or antimicrobial activity) | E. coli (C) | M. luteus (C) | MRSA (C) | – | S. epidermidis (C) | S. mutans (D) | S. pneumoniae (C) | S. epidermidis; also recorded: M. luteus; also recorded: E. coli; also recorded: C. albicans; also recorded: S. pneumoniae; also recorded: E. faecalis; also recorded: C. jeikeium | G B | P. aeruginosa (A) |
| PF-756 (chain 1 DALLRLA; chain 2 DALLRLA; Peptide with targeting and/or antimicrobial activity) | – | – | – | – | – | – | S. pneumoniae (A) | S. epidermidis and M. luteus and C. albicans and MRSA and C. jeikeium | G B | – |
| PF-757 (chain 1 PQAISSVQQNA; chain 2 PQAISSVQQNA; Peptide with targeting and/or antimicrobial activity) | – | – | – | – | – | – | S. pneumoniae (H) | M. luteus and C. albicans and MRSA | G B | – |
| PF-760 (chain 1 DHITLDDYEIHDGFNFELYYG; chain 2 DHITLDDYEIHDGFNFELYYG; Peptide with targeting and/or antimicrobial activity) | – | – | MRSA (M) | – | S. epidermidis (M) | – | S. pneumoniae (C) | S. epidermidis; also recorded: M. luteus | G B | – |
| PF-762 (chain 1 PAPAPSAPAPAPEQPEQPA; chain 2 PAPAPSAPAPAPEQPEQPA; Peptide with targeting and/or antimicrobial activity) | – | – | – | – | – | – | S. pneumoniae (H) | M. luteus; also recorded: C. albicans | G B | – |
